According to paper PMC4491109, “Synthesis and anticonvulsant activity of new N-phenyl-2-(4-phenylpiperazin-1-yl)acetamide derivatives” (Medicinal Chemistry Research, 2015):
Where two headings read alike, the source gives them in different places.

Columns and labels:
Format in all cases: in vivo
[1] = test system: pentylenetetrazole-induced seizures; assay: Subcutaneous pentylenetetrazole (scPTZ) test, i.p. administration in mice; conditions: Mus musculus, ip, doses of 30, 100 or 300 mg/kg
Protocol: (§1) Considering the aforementioned facts, the profile of anticonvulsant activity of final compounds 3–24 was established in the MES and scPTZ tests, after intraperitoneal (i.p.) injection in mice at doses of 30, 100 and 300 mg/kg. An observation was carried out at two different time intervals—0.5 and 4 h. Furthermore, in addition to the primary anticonvulsant screening, the acute neurological toxicity (NT) was determined in mice by the rotarod test.
(§2) Compounds 3–24 were pharmacologically preevaluated within the Antiepileptic Drug Development (ADD) Program in Epilepsy Branch, Neurological Disorders Program, National Institute of the Neurological and Communicative Disorders and Stroke (NIH/NINDS), Rockville, MD, USA, by using procedures described elsewhere (Krall et al., [1978]; Kupferberg, [1989]).
(§3) Phase I of the in vivo studies involved three tests: MES, scPTZ and rotarod test for NT. Male albino mice (CF#1 strain, weighing 18–25 g) and male albino rats (Sprague–Dawley) were used as experimental animals. The animals were housed in metabolic cages and allowed free access to food and water. The compounds were injected intraperitoneally to mice as a suspension in 0.5 % methylcellulose/water mixture at a dose level 30, 100 or 300 mg/kg with anticonvulsant activity and neurotoxicity assessment at 0.5 and 4 h after administration. Promising derivatives from phase I underwent phase VIa in which they were administrated orally into rats at a fixed dose of 30 mg/kg for both MES and the rotarod toxicity determination at five pretreatment times: 0.25, 0.5, 1, 2, 4 h. Groups of eight mice or four rats are employed.
The scPTZ test utilizes a dose of pentylenetetrazole (85 mg/kg in mice) that produces clonic seizures lasting for a period of at least 5 s in 97 % (CD97) of animals tested. PTZ is administered 0.5 and 4 h after injections of tested compounds, and observation is carried out for 30 min. In the control groups, the first episode of clonic convulsions is observed between 6 and 15 min of observation. The absence of clonic convulsions in the observed time period of […] is interpreted as the compound’s ability to protect against PTZ-induced seizures.

[2] = test system: maximal electroshock (MES) seizures; assay: Maximal electroshock (MES) test, i.p. administration in mice; conditions: Mus musculus, ip, doses of 30, 100 or 300 mg/kg
Protocol: as §1, §2, §3
In the MES screen, an electrical stimulus of 0.2 s in duration (50 mA in mice and 150 mA in rats) is delivered via corneal electrodes primed with an electrolyte solution containing an anesthetic agent. The endpoint is the tonic extension of the hind limbs. In the control groups, the procedures cause immediate hind limb tonic extension. Mice not displaying hind limb tonic extension are considered to be protected from seizures.

[3] = test system: mice (rotarod test); assay: Neurotoxicity screening (NT), rotarod test, i.p. administration in mice; conditions: for dose showing neurotoxicity in the rotarod test (NT): ip
Protocol: as §1, §3
The neurological toxicity test (NT) induced by a compound was detected in mice or rats using standardized rotarod test (Dunham and Miya, [1957]). Untreated control mice or rats, when placed on the rod, can maintained their equilibrium for a prolonged time period.

[4] = test system: 6-Hz psychomotor seizures; assay: Psychomotor seizure test (6-Hz), i.p. in mice; conditions: 100 mg/kg
Description: In the next step of pharmacological investigations, four compounds 12, 19, 20 and 24 were chosen for the evaluation of anticonvulsant activity in the psychomotor 6-Hz test (Table 4). The selection was made randomly as a part of the search of molecules providing anti-6-Hz protection among chemically diversified compounds pursued in the NIH/NINDS. It should be noticed that 6-Hz screen has been validated as a model of therapy-resistant epilepsy (Barton et al., [2001]).
The 6-Hz model is an alternative electroshock paradigm that uses low-frequency (6 Hz), long-duration (3 s) electrical stimulation. Corneal stimulation (0.2 ms duration monopolar rectangular pulses at 6-Hz for 3 s) was delivered by a constant-current device. During the stimulation, mice were manually restrained and released into the observation cage immediately after the current application. The seizures manifest in “stunned” posture associated with rearing, forelimb, automatic movements and clonus, twitching the vibrissae and Straub–tail. The duration of the seizure activity ranges from 60 to 120 s in untreated animals. At the end of the seizure, animals resume their normal exploratory behavior. The experimental end point is protection against the seizure. The animal is considered to be protected if it resumes its normal exploratory behavior within 10 s from the stimulation (Brown et al., [1953]).

[5] = 0.5 h, read-out: scPTZ, minimum dose effective in half or more animals tested, 0.5 h
[6] = 4 h, read-out: scPTZ, minimum dose effective in half or more animals tested, 4 h
[7] = 0.5 h, read-out: MES, minimum dose effective in half or more animals tested, 0.5 h
[8] = 4 h, read-out: MES, minimum dose effective in half or more animals tested, 4 h

Structure (SMILES) | minimal effective dose [1, 5] [mg/kg] | minimal effective dose [1, 6] [mg/kg] | minimal effective dose [2, 7] [mg/kg] | minimal effective dose [2, 8] [mg/kg] | further results
Cl.O=C(CN1CCN(c2ccccc2)CC1)Nc1cccc(Cl)c1 [Compound 3, N-(3-chlorophenyl)-2-(4-phenylpiperazin-1-yl)acetamide monohydrochloride] | > 300 | > 300 | > 300 | > 300 | –
Cl.O=C(CN1CCN(c2ccccc2Cl)CC1)Nc1cccc(Cl)c1 [Compound 4, N-(3-chlorophenyl)-2-[4-(2-chlorophenyl)piperazin-1-yl]acetamide monohydrochloride] | > 300 | > 300 | > 300 | > 300 | –
Cl.O=C(CN1CCN(c2ccc(Cl)cc2)CC1)Nc1cccc(Cl)c1 [Compound 5, N-(3-chlorophenyl)-2-[4-(4-chlorophenyl)piperazin-1-yl]acetamide monohydrochloride] | > 300 | > 300 | > 300 | > 300 | –
Cl.O=C(CN1CCN(c2cccc(Cl)c2Cl)CC1)Nc1cccc(Cl)c1 [Compound 6, N-(3-chlorophenyl)-2-[4-(2,3-dichlorophenyl)piperazin-1-yl]acetamide monohydrochloride] | > 300 | > 300 | > 300 | > 300 | –
Cl.O=C(CN1CCN(c2ccccc2F)CC1)Nc1cccc(Cl)c1 [Compound 7, N-(3-chlorophenyl)-2-[4-(2-fluorophenyl)piperazin-1-yl]acetamide monohydrochloride] | > 300 | > 300 | > 300 | > 300 | –
Cl.O=C(CN1CCN(c2ccc(F)cc2)CC1)Nc1cccc(Cl)c1 [Compound 8, N-(3-chlorophenyl)-2-[4-(4-fluorophenyl)piperazin-1-yl]acetamide monohydrochloride] | > 300 | > 300 | > 300 | > 300 | –
Cl.O=C(CN1CCN(c2cccc(C(F)(F)F)c2)CC1)Nc1cccc(Cl)c1 [Compound 9, N-(3-chlorophenyl)-2-[4-[3-(trifluoromethyl)phenyl]piperazin-1-yl]acetamide monohydrochloride] | > 300 | > 300 | > 300 | > 300 | –
Cl.O=C(CN1CCN(c2ncccn2)CC1)Nc1cccc(Cl)c1 [Compound 10, N-(3-chlorophenyl)-2-(4-pyrimidin-2-ylpiperazin-1-yl)acetamide monohydrochloride] | > 300 | > 300 | > 300 | > 300 | –
Cl.Cl.O=C(CN1CCN(Cc2ccccc2)CC1)Nc1cccc(Cl)c1 [Compound 11, 2-(4-Benzylpiperazin-1-yl)-N-(3-chlorophenyl)acetamide dihydrochloride] | > 300 | > 300 | > 300 | > 300 | NT (rotarod), minimum dose neurotoxic in half or more animals tested, 0.5 h ([3]; male, CF#1, mouse, in vivo): 300 mg/kg; dose showing neurotoxicity in the rotarod test (NT) ([3]; male, CF#1, mouse, in vivo): 300 mg/kg
CN1CCN(CC(=O)Nc2cccc(Cl)c2)CC1.Cl.Cl [Compound 12, N-(3-chlorophenyl)-2-(4-methylpiperazin-1-yl)acetamide dihydrochloride] | > 300 | > 300 | 100 | > 300 | 6-Hz, % of animals protected, 0.25 h ([4]; 0.25 h): 75%; 6-Hz, % of animals protected, 0.5 h ([4]; 0.5 h): 75%; 6-Hz, number of mice protected/number of mice tested, 0.25 h ([4]; current 32 mA, 0.25 h): 3/4; 6-Hz, number of mice protected/number of mice tested, 0.5 h ([4]; current 32 mA, 0.5 h): 3/4; 6-Hz, number of mice protected/number of mice tested, 1 h ([4]; current 32 mA, 1 h): 0/4; 6-Hz, number of mice protected/number of mice tested, 2 h ([4]; current 32 mA, 2 h): 0/4; 6-Hz, number of mice protected/number of mice tested, 4 h ([4]; current 32 mA, 4 h): 0/4
O=C(CN1CCN(c2ccccc2)CC1)Nc1cccc(C(F)(F)F)c1 [Compound 14, 2-(4-Phenylpiperazin-1-yl)-N-[3-(trifluoromethyl)phenyl]acetamide] | > 300 | > 300 | > 300 | 100 | NT (rotarod), minimum dose neurotoxic in half or more animals tested, 0.5 h ([3]; male, CF#1, mouse, in vivo): 300^Z mg/kg; NT (rotarod), minimum dose neurotoxic in half or more animals tested, 4 h ([3]; male, CF#1, mouse, in vivo, 4 h): 300 mg/kg; dose showing neurotoxicity in the rotarod test (NT) ([3]; male, CF#1, mouse, in vivo): 300 mg/kg; response comment (adverse sign observed) ([3]; mice, i.p., 300 mg/kg): respiratory depression
Cl.O=C(CN1CCN(c2ccccc2Cl)CC1)Nc1cccc(C(F)(F)F)c1 [Compound 15, 2-[4-(2-Chlorophenyl)piperazin-1-yl]-N-[3-(trifluoromethyl)phenyl]acetamide monohydrochloride] | > 300 | > 300 | > 300 | > 300 | –
O=C(CN1CCN(c2ccc(Cl)cc2)CC1)Nc1cccc(C(F)(F)F)c1 [Compound 16, 2-[4-(4-Chlorophenyl)piperazin-1-yl]-N-[3-(trifluoromethyl)phenyl]acetamide] | > 300 | > 300 | > 300 | 100 | –
O=C(CN1CCN(c2cccc(Cl)c2Cl)CC1)Nc1cccc(C(F)(F)F)c1 [Compound 17, 2-[4-(2,3-Dichlorophenyl)piperazin-1-yl]-N-[3-(trifluoromethyl)phenyl]acetamide] | > 300 | > 300 | > 300 | > 300 | –
Cl.O=C(CN1CCN(c2ccccc2F)CC1)Nc1cccc(C(F)(F)F)c1 [Compound 18, 2-[4-(2-Fluorophenyl)piperazin-1-yl]-N-[3-(trifluoromethyl)phenyl]acetamide monohydrochloride] | > 300 | > 300 | > 300 | 100 | –
Cl.O=C(CN1CCN(c2ncccn2)CC1)Nc1cccc(C(F)(F)F)c1 [Compound 21, 2-(4-Pyrimidin-2-ylpiperazin-1-yl)-N-[3-(trifluoromethyl)phenyl]acetamide monohydrochloride] | > 300 | > 300 | > 300 | > 300 | NT (rotarod), minimum dose neurotoxic in half or more animals tested, 0.5 h ([3]; male, CF#1, mouse, in vivo): 300 mg/kg
Cl.Cl.O=C(CN1CCN(CCO)CC1)Nc1cccc(C(F)(F)F)c1 [Compound 23, 2-[4-(2-Hydroxyethyl)piperazin-1-yl]-N-[3-(trifluoromethyl)phenyl]acetamide dihydrochloride] | > 300 | > 300 | 300 | 300 | NT (rotarod), minimum dose neurotoxic in half or more animals tested, 0.5 h ([3]; male, CF#1, mouse, in vivo): 300 mg/kg
